pEC50: −log10 of the molar value.
Target: human GLP1R (hGLP1R) (Homo sapiens, UniProt P43220)
Experiment: Human GLP1R β-arrestin recruitment assay (PathHunter)
Format: cell-based
Set-up: insert synthesized by GeneArt 93-0164 (CHO-K1-EA parental cells); 93-0491 (pCMV PK vector bundle)
Conditions: CHO-hGLP1R-β-arrestin cells; for pEC50: 2 h at 37° C., top concentration 30 μM, read-out: Beta-Arrestin assay EC50 Mean; for Emax: relative to GLP1(7-36), read-out: Beta-Arrestin assay Emax (%)
Method: Compounds of formula (I) according to the invention were tested in the following cellular assays that measure the intracellular cAMP concentration, beta-arrestin recruitment and receptor internalization. The cAMP is generated by the activation of GLP1R. The extent to which the GLP1R is internalized into the cell and away from the plasma membrane following activation is also shown in Table 2. EC50 for each assay is defined as the concentration of the compound that leads to half of the maximum response (after baseline correction). Emax is defined as the maximum response observed for the test compound, normalized to the maximum response observed for the endogenous ligand (GLP1(7-36)) to GLP1R.
Human GLP1R β-Arrestin Recruitment Assay
The extent to which agonists recruited β-arrestin was measured using the PathHunter® β-arrestin assay (DiscoverX). This assay measures binding of β-arrestin to the receptor using an enzyme complementation approach. […] When β-arrestin is recruited to the receptor the enzyme becomes active and generates luminescence in the presence of a chemiluminescent substrate (PathHunter® Detection Kit, DiscoverX cat #93-0001). Luminescence can be measured on a relevant detector. CHO-hGLP1R-β-arrestin cells stably overexpressing hGLP1R with Prolink tag and β-arrestin with EA tag were seeded at 20 μL per well in white 384-well poly-D-Lysine coated plates (Greiner Bio One, cat #781945) in Plating Reagent 2 (DiscoverX, cat #93-0563R^2A), and incubated overnight at 37° C., 5% CO2 with humidity. The following day, agonists were prepared at 5 times the final required concentration. To generate triplicate dose response curves, compounds were serially diluted 3-fold in assay buffer (HBSS, 10 mM Hepes and 0.1% BSA), then added to the cell assay plate to a final volume of 25 μL and final top concentrations starting at 30 μM. In the same plate and assay buffer as the tested compounds, were EC100 control wells containing GLP1 (7-36) peptide (Bachem, cat #H-6795) at a final concentration of 1 μM and also EC0 control wells containing no compound. The plate was incubated at 37° C., 5% CO2 with humidity for 2 h after adding the compounds to the cells. Then the detection reagent was prepared (19 parts cell assay buffer, 5 parts substrate reagent 1 and 1 part substrate reagent 2 as per manufacturers recommendations, DiscoverX cat #93-0001), and 12 μL were added per well to the cell assay plate. The plate was incubated for an additional hour in the dark at RT. Luminescence was then measured with an Envision 2104 Multilabel reader with “TRF Light Unit, 337 nm” (Perkin Elmer) using the Ultra-Sensitive protocol setting “384-well US luminescence detector” with the 384-well luminescence aperture, 0.1 sec per well. β-arrestin recruitment was calculated and expressed as percent of the GLP1 (7-36) EC100 control wells: [(sample signal−mean EC0 signal)/(mean EC100 of GLP1 (7-36) signal−mean EC0 signal)]*100 using Microsoft Excel. Curve fitting for EC50 determinations was performed using GraphPad Prism. The 4-parameter logistic model, Hill slope was used: Y=Bottom+(Top−Bottom)/(1+10^((Log EC50−X)*Hill Slope)), where Y is the functional response; X is the compound concentration; bottom is A0 or the minimum value (at 0 dose); top is Ainf or the maximum value (at infinite dose); EC50 is the point of inflection (i.e. the point on the sigmoid shaped curve halfway between A0 and Ainf). The EC50 value was calculated in μM. Emax is the maximal activity detected within the concentration range, derived from the fitted curve relative to GLP1(7-36).
PathHunter CHO-K1-EA parental cells (DiscoverX, cat #93-0164) were plated at a density of 2×10^6 cells per T75 cm^2 flask in 22 mL of complete medium (AssayComplete Cell Culture kit 107, DiscoverX, cat #92-3107G). The following day, the medium was replaced with 22 mL of fresh medium with no antibiotics and cells were transfected as follows. […]

Sequence of human GLP1R (hGLP1R) (P43220 24-463): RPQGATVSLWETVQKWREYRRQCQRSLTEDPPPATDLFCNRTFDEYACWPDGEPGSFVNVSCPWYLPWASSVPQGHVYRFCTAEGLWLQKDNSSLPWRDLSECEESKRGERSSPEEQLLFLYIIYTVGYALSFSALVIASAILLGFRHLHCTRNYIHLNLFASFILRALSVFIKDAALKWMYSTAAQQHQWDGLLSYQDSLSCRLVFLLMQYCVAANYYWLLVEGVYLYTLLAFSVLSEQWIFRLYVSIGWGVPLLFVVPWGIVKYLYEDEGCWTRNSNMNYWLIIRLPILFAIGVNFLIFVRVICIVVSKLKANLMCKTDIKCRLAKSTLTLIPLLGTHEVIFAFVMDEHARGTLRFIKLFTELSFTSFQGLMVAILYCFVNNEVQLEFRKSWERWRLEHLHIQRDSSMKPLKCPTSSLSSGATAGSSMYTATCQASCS

CCc1nc(CN2CCC(c3cccc4c3O[C@@](C)(c3ccc(Cl)cc3F)O4)CC2)n(C[C@@H]2CCO2)c1-c1nc(C(=O)O)co1 [Compound C-5, 2-(2-((4-((S)-2-(4-chloro-2-fluorophenyl)-2-methylbenzo[d][1,3]dioxol-4-yl)piperidin-1-yl)methyl)-4-ethyl-1-(((S)-oxetan-2-yl)methyl)-1H-imidazol-5-yl)oxazole-4-carboxylic acid]
pEC50: < 4.52 | Emax: 0%

Cc1c(-c2nc(C(F)(F)F)c(C(=O)O)o2)nc(CN2CCC(c3cccc4c3O[C@@](C)(c3ccc(Cl)cc3F)O4)CC2)n1C[C@@H]1CCO1 [Compound C-14, 2-(2-((4-((S)-2-(4-chloro-2-fluorophenyl)-2-methylbenzo[d][1,3]dioxol-4-yl)piperidin-1-yl)methyl)-5-methyl-1-(((S)-oxetan-2-yl)methyl)-1H-imidazol-4-yl)-4-(trifluoromethyl)oxazole-5-carboxylic acid]
pEC50: < 4.52 | Emax: 0%

Cc1nc(CN2CCC(c3cccc4c3O[C@@](C)(c3ccc(Cl)cc3F)O4)CC2)n(C[C@@H]2CCO2)c1-c1nc(C(=O)O)co1 [Compound C-9, 2-(2-((4-((S)-2-(4-chloro-2-fluorophenyl)-2-methylbenzo[d][1,3]dioxol-4-yl)piperidin-1-yl)methyl)-4-methyl-1-(((S)-oxetan-2-yl)methyl)-1H-imidazol-5-yl)oxazole-4-carboxylic acid]
pEC50: < 4.52 | Emax: 0%

Cc1c(-c2cnc(C(=O)O)o2)nc(CN2CCC(c3cccc4c3O[C@@](C)(c3ccc(Cl)cc3F)O4)CC2)n1C[C@@H]1CCO1 [Compound C-16, 5-(2-((4-((S)-2-(4-chloro-2-fluorophenyl)-2-methylbenzo[d][1,3]dioxol-4-yl)piperidin-1-yl)methyl)-5-methyl-1-(((S)-oxetan-2-yl)methyl)-1H-imidazol-4-yl)oxazole-2-carboxylic acid]
pEC50: < 4.52 | Emax: 11%

Cc1nc(CN2CCC(c3cccc4c3O[C@@](C)(c3ccc(Cl)cc3F)O4)CC2)n(C[C@@H]2CCO2)c1-c1coc(C(=O)O)n1 [Compound C-20, 4-(2-((4-((S)-2-(4-chloro-2-fluorophenyl)-2-methylbenzo[d][1,3]dioxol-4-yl)piperidin-1-yl)methyl)-4-methyl-1-(((S)-oxetan-2-yl)methyl)-1H-imidazol-5-yl)oxazole-2-carboxylic acid]
pEC50: < 4.52 | Emax: 0%

CCc1nc(CN2CCC(c3cccc4c3O[C@@](C)(c3ccc(Cl)cc3F)O4)CC2)n(C[C@H]2CCO2)c1-c1nc(C(=O)O)co1 [Compound C-7, 2-(2-((4-((S)-2-(4-chloro-2-fluorophenyl)-2-methylbenzo[d][1,3]dioxol-4-yl)piperidin-1-yl)methyl)-4-ethyl-1-(((R)-oxetan-2-yl)methyl)-1H-imidazol-5-yl)oxazole-4-carboxylic acid]
pEC50: < 4.52 | Emax: 5%

C[C@]1(c2ccc(Cl)cc2F)Oc2cccc(C3CCN(Cc4nc(C(F)(F)F)c(-c5nc(C(=O)O)co5)n4C[C@@H]4CCO4)CC3)c2O1 [Compound C-4, 2-(2-((4-((S)-2-(4-chloro-2-fluorophenyl)-2-methylbenzo[d][1,3]dioxol-4-yl)piperidin-1-yl)methyl)-1-(((S)-oxetan-2-yl)methyl)-4-(trifluoromethyl)-1H-imidazol-5-yl)oxazole-4-carboxylic acid]
pEC50: < 4.52 | Emax: 0%

Cc1c(-c2nc(C(=O)O)co2)nc(CN2CCC(c3cccc4c3O[C@@](C)(c3ccc(Cl)cc3F)O4)CC2)n1C[C@@H]1CCO1 [Compound C-13, 2-(2-((4-((S)-2-(4-chloro-2-fluorophenyl)-2-methylbenzo[d][1,3]dioxol-4-yl)piperidin-1-yl)methyl)-5-methyl-1-(((S)-oxetan-2-yl)methyl)-1H-imidazol-4-yl)oxazole-4-carboxylic acid]
pEC50: < 4.52 | Emax: 12%

CCc1oc(-c2c(C)nc(CN3CCC(c4cccc5c4O[C@@](C)(c4ccc(Cl)cc4F)O5)CC3)n2C[C@@H]2CCO2)nc1C(=O)O [Compound C-10, 2-(2-((4-((S)-2-(4-chloro-2-fluorophenyl)-2-methylbenzo[d][1,3]dioxol-4-yl)piperidin-1-yl)methyl)-4-methyl-1-(((S)-oxetan-2-yl)methyl)-1H-imidazol-5-yl)-5-ethyloxazole-4-carboxylic acid]
pEC50: < 4.52 | Emax: 0%

Cc1c(-c2cc(C(=O)O)n(C)n2)nc(CN2CCC(c3cccc4c3O[C@@](C)(c3ccc(Cl)cc3F)O4)CC2)n1C[C@@H]1CCO1 [Compound C-17, 3-(2-((4-((S)-2-(4-chloro-2-fluorophenyl)-2-methylbenzo[d][1,3]dioxol-4-yl)piperidin-1-yl)methyl)-5-methyl-1-(((S)-oxetan-2-yl)methyl)-1H-imidazol-4-yl)-1-methyl-1H-pyrazole-5-carboxylic acid]
pEC50: < 4.52 | Emax: 2%

Cc1c(-c2ccc(C(=O)O)o2)nc(CN2CCC(c3cccc4c3O[C@@](C)(c3ccc(Cl)cc3F)O4)CC2)n1C[C@@H]1CCO1 [Compound C-24, 5-(2-((4-((S)-2-(4-chloro-2-fluorophenyl)-2-methylbenzo[d][1,3]dioxol-4-yl)piperidin-1-yl)methyl)-5-methyl-1-(((S)-oxetan-2-yl)methyl)-1H-imidazol-4-yl)furan-2-carboxylic acid]
pEC50: < 4.52 | Emax: 1%

Cc1oc(-c2nc(CN3CCC(c4cccc5c4O[C@@](C)(c4ccc(Cl)cc4F)O5)CC3)n(C[C@@H]3CCO3)c2C)nc1C(=O)O [Compound C-12, 2-(2-((4-((S)-2-(4-chloro-2-fluorophenyl)-2-methylbenzo[d][1,3]dioxol-4-yl)piperidin-1-yl)methyl)-5-methyl-1-(((S)-oxetan-2-yl)methyl)-1H-imidazol-4-yl)-5-methyloxazole-4-carboxylic acid]
pEC50: < 4.52 | Emax: 10%

Cc1c(-c2coc(C(=O)O)n2)nc(CN2CCC(c3cccc4c3O[C@@](C)(c3ccc(Cl)cc3F)O4)CC2)n1C[C@@H]1CCO1 [Compound C-18, 4-(2-((4-((S)-2-(4-chloro-2-fluorophenyl)-2-methylbenzo[d][1,3]dioxol-4-yl)piperidin-1-yl)methyl)-5-methyl-1-(((S)-oxetan-2-yl)methyl)-1H-imidazol-4-yl)oxazole-2-carboxylic acid]
pEC50: < 4.52 | Emax: 16%

Cc1nc(CN2CCC(c3cccc4c3O[C@@](C)(c3ccc(Cl)cc3F)O4)CC2)n(C[C@@H]2CCO2)c1-c1nc(C(=O)O)c(C)o1 [Compound C-1, 2-(2-((4-((S)-2-(4-chloro-2-fluorophenyl)-2-methylbenzo[d][1,3]dioxol-4-yl)piperidin-1-yl)methyl)-4-methyl-1-(((S)-oxetan-2-yl)methyl)-1H-imidazol-5-yl)-5-methyloxazole-4-carboxylic acid]
pEC50: < 4.52 | Emax: 2%

Cc1cc(-c2nc(CN3CCC(c4cccc5c4O[C@@](C)(c4ccc(Cl)cc4F)O5)CC3)n(C[C@@H]3CCO3)c2C)oc1C(=O)O [Compound C-19, 5-(2-((4-((S)-2-(4-chloro-2-fluorophenyl)-2-methylbenzo[d][1,3]dioxol-4-yl)piperidin-1-yl)methyl)-5-methyl-1-(((S)-oxetan-2-yl)methyl)-1H-imidazol-4-yl)-3-methylfuran-2-carboxylic acid]
pEC50: < 4.52 | Emax: 7%

From patent US20250145600A1, “2-((4-((S)-2-(4-CHLORO-2-FLUOROPHENYL)-2-METHYLBENZO[D][1,3]DIOXOL-4-YL)PIPERIDIN-1-YL)METHYL)-1-(((S)-OXETAN-2-YL)METHYL)-1H-IMIDAZOLE DERIVATIVES AS ACTIVATORS OF THE GLP1 RECEPTOR FOR THE TREATMENT OF OBESITY” (Novartis AG, priority 2022, published 2025)
